Results taken from patent publication US20100144688A1, “23-Substituted Derivatives of Lupane-type Pentacyclic Triterpenoids” (ADVANCED LIFE SCIENCES, INC., priority 2008, published 2010).

What was measured:
SK-MEL-2 (melanoma) = assay: MTS cell viability assay, SK-MEL-2; assay type: cell-based
Protocol: (§1) Cells were plated, the evening before treatment, for each treatment on 96-well plates (1×10^4 cells/well) in 100 μL volume per well. Analog solutions were prepared by diluting each test compound in DMSO (10 mM) with the appropriate cell growth media for each individual cell line, or in “Universal Media” if several cell lines were to be assayed in parallel, immediately prior to cell treatment. Universal Media consisted of 5 mL sodium pyruvate (100× liquid stock, MediaTech), 5 mL glucose (100×, 45% liquid stock, MediaTech), 5 mL Penicillin/Streptomycin (100× liquid stock, MediaTech), 10 mL sodium bicarbonate (50× liquid stock, MediaTech), 25 mL Fetal Calf Serum, 1.25 mL insulin (4 mg/mL, Gibco) and 449 mL RPMI media with 2 mM L-glutamine for a total volume of 500 mL.
(§2) Cells were treated by aspirating plating media from each well and adding 80 μL of betulinic acid (control) or each analog solution in serial dilutions to the adherent cells. All treatments were performed in triplicate. Growth media (80 μL) was added to 3 blank wells (no cells) to measure background from the growth media. Growth media alone (no DMSO or test compound) was added to 3 wells containing cells to measure the baseline MTS activity. Vehicle (DMSO) control in serial dilutions, added to cells, was also included to monitor basal toxicity from DMSO. Cells were incubated at 37° C. for 72 h, or 120 h for the OVCAR cell lines. MTS reagent (per 96-well plate) were prepared by combining 2 mL of MTS working solution (Cell Titer Aqueous Non-Radioactive Cell Proliferation Assay, Promega, cat#G1112), 100 μL of 0.92 mg/mL phenazine methosulfate/Dulbecco's PBS and 2.1 mL growth media. MTS reagent (40 μL) was added to each well and incubated at 37° C. for 1.5 to 4 h. Plates were gently shaken by hand until solution in each well appeared homogenous. Absorbances at 490 nm were measured on a Wallac Victor II plate reader at multiple time points following the addition of MTS reagent for each plate. Triplicate absorbance (490 nm) measurements were averaged following background (no cell) subtraction for each drug concentration. Percent Cell Viability was calculated for each drug concentration using the following equation:
(§3) {[Absorbance(analog treated)]/[Absorbance(DMSO treated)]}×100%
(§4) Percent viability (y-axis) was plotted against drug concentration (x-axis) and the resulting graph was used to determine the 50% inhibitory concentration (IC50) for each drug.
(§5) Cytotoxicity dose response for the synthesized triterpenoid derivatives in SK-MEL-2 (melanoma), A-375 (melanoma), Daoy (glioblastoma), LN-229 (glioblastoma), OVCAR-3 (ovarian carcinoma), HT-29 (colon carcinoma), MCF-7 (breast carcinoma) cell lines using the standard MTS assay (described above) is summarized in Table 1.

[1] = tested on: human leukemia HL-60 cells; conditions: by decrease in telomerase activity and down-regulation of bcl-2; cited from earlier work
[2] = tested on: murine melanoma B16 cells; conditions: cited from earlier work
[3] = tested on: human colon carcinoma cell lines (Caco-2); conditions: Caco-2, at approximately 60 minutes; cited from earlier work
Daoy (glioblastoma) = assay: MTS cell viability assay, Daoy; assay type: cell-based; conditions: 72 h incubation
Protocol: as §1, §2, §3, §4, §5

LN-229 (glioblastoma) = assay: MTS cell viability assay, LN-229; assay type: cell-based
Protocol: as §1, §2, §3, §4, §5

MCF-7 (breast carcinoma) = assay: MTS cell viability assay, MCF-7; assay type: cell-based
Protocol: as §1, §2, §3, §4, §5

A-375 (melanoma) = assay: MTS cell viability assay, A-375; assay type: cell-based
Protocol: as §1, §2, §3, §4, §5

HT-29 (colon carcinoma) = assay: MTS cell viability assay, HT-29; assay type: cell-based
Protocol: as §1, §2, §3, §4, §5

[4] = tested on: OVCAR-3 (ovarian carcinoma); assay: MTS cell viability assay, OVCAR-3; assay type: cell-based; conditions: 120 h for the OVCAR cell lines
Protocol: as §1
Cells were treated by aspirating plating media from each well and adding 80 μL of betulinic acid (control) or each analog solution in serial dilutions to the adherent cells. […] Absorbances at 490 nm were measured on a Wallac Victor II plate reader at multiple time points following the addition of MTS reagent for each plate. Triplicate absorbance (490 nm) measurements were averaged following background (no cell) subtraction for each drug concentration. Percent Cell Viability was calculated for each drug concentration using the following equation:
{[Absorbance(analog treated)]/[Absorbance(DMSO treated)]}×100% […]

[5] = Homo sapiens, SK-MEL-2, 72 h incubation
[6] = Homo sapiens, LN-229, 72 h incubation
[7] = Homo sapiens, MCF7, 72 h incubation
[8] = Homo sapiens, A-375, 72 h incubation
[9] = Homo sapiens, HT-29, 72 h incubation

Row | Compound | IC50 (SK-MEL-2 (melanoma); [5]) | IC50 (Daoy (glioblastoma); Homo sapiens, Daoy) | other results
1 | C=C(C)[C@@H]1CC[C@]2(C(=O)O)CC[C@]3(C)[C@H](CC[C@@H]4[C@@]5(C)CC[C@H](O)C(C)(CO)[C@@H]5CC[C@]43C)[C@@H]12 (stereo partly drawn) [Compound 1, 23-Hydroxybetulinic acid] | > 75 µM | > 75 µM | growth arrest and apoptotic cell death, HL-60 [1]: induces growth arrest and apoptotic cell death; growth arrest and apoptotic cell death, B16 ([2]; by increase in reactive oxidative species and dissipation of mitochondrial membrane potential): induces growth arrest and apoptotic cell death; potency against murine melanoma B16 cells ([2]; compared with betulinic acid (2)): increased potency; intracellular concentration (cellular uptake) [3]: 906.7 μM/mg protein
2 | C=C(C)[C@@H]1CC[C@]2(C(=O)O)CC[C@]3(C)[C@H](CC[C@@H]4[C@@]5(C)CC[C@H](O)C(C)(C)[C@@H]5CC[C@]43C)[C@@H]12 [Compound 2, betulinic acid, reference compound] |  |  | IC50 (LN-229 (glioblastoma); 72 h incubation): 61 µM; IC50 (SK-MEL-2 (melanoma); 72 h incubation): 33 µM; IC50 (MCF-7 (breast carcinoma); 72 h incubation): 50 µM; IC50 (A-375 (melanoma); 72 h incubation): 51 µM; IC50 (HT-29 (colon carcinoma); 72 h incubation): 37 µM; IC50 [4]: 59 µM; IC50 (Daoy (glioblastoma)): 31 µM
3 | C=C(C)[C@@H]1CC[C@]2(C(=O)O)CC[C@]3(C)[C@H](CC[C@@H]4[C@@]5(C)CCC(=O)C(C)(CO)[C@@H]5CC[C@]43C)[C@@H]12 (stereo partly drawn) [Compound 4, 23-hydroxybetulonic acid, reference compound] | 33 µM | 59 µM | 
4 | C=C(C)[C@@H]1CC[C@]2(CO)CC[C@]3(C)[C@H](CC[C@@H]4[C@@]5(C)CC[C@H](O)C(C)(CO)[C@@H]5CC[C@]43C)[C@@H]12 (stereo partly drawn) [Compound 5, 23-hydroxybetulin, reference compound] | > 75 µM | 65 µM | 
5 | C=C(C)[C@@H]1CC[C@]2(CO)CC[C@]3(C)[C@H](CC[C@@H]4[C@@]5(C)CCC(=NOC(C)=O)C(C)(COC(C)=O)[C@@H]5CC[C@]43C)[C@@H]12 (stereo partly drawn) [Compound 15b] | 35 µM | 34 µM | 
6 | C=C(C)[C@@H]1CC[C@]2(COC(C)=O)CC[C@]3(C)[C@H](CC[C@@H]4[C@@]5(C)CCC(=NO)C(C)(CO)[C@@H]5CC[C@]43C)[C@@H]12 (stereo partly drawn) [Compound 17c] | 16 µM | 16 µM | 
7 | C=C(C)[C@@H]1CC[C@]2(CO)CC[C@]3(C)[C@H](CC[C@@H]4[C@@]5(C)CCC(=O)C(C)(CO)[C@@H]5CC[C@]43C)[C@@H]12 (stereo partly drawn) [Compound 18b] | > 75 µM | 34 µM | 
8 | C=C(C)[C@@H]1CC[C@]2(COC(C)=O)CC[C@]3(C)[C@H](CC[C@@H]4[C@@]5(C)CCC(=O)C(C)(CO)[C@@H]5CC[C@]43C)[C@@H]12 (stereo partly drawn) [Compound 18c] | 29 µM | 16 µM | 
9 | C=C(C)[C@@H]1CC[C@]2(C(=O)O)CC[C@]3(C)[C@H](CC[C@@H]4[C@@]5(C)CCC(N)C(C)(CO)[C@@H]5CC[C@]43C)[C@@H]12 (stereo partly drawn) [Compound 22] | 36 µM | 38 µM | 
10 | C=C(C)[C@@H]1CC[C@]2(CO)CC[C@]3(C)[C@H](CC[C@@H]4[C@@]5(C)CCC(N)C(C)(CO)[C@@H]5CC[C@]43C)[C@@H]12 (stereo partly drawn) [Compound 23] | 2 µM | 2 µM | IC50 (LN-229 (glioblastoma); [6]): 15 µM; IC50 (MCF-7 (breast carcinoma); [7]): 5 µM; IC50 (A-375 (melanoma); [8]): 5 µM; IC50 (HT-29 (colon carcinoma); [9]): 6 µM
11 | C=C(C)[C@@H]1CC[C@]2(COC(C)=O)CC[C@]3(C)[C@H](CC[C@@H]4[C@@]5(C)CCC(NC(C)=O)C(C)(COC(C)=O)[C@@H]5CC[C@]43C)[C@@H]12 (stereo partly drawn) [Compound 25] | 36 µM | 38 µM | 
12 | C=C(C)[C@@H]1CC[C@]2(CO)CC[C@]3(C)[C@H](CC[C@@H]4[C@@]5(C)CCC(NC(C)=O)C(C)(CO)[C@@H]5CC[C@]43C)[C@@H]12 (stereo partly drawn) [Compound 27] | 64 µM | > 75 µM | 
13 | C=C(C)[C@@H]1CC[C@]2(C=NO)CC[C@]3(C)[C@H](CC[C@@H]4[C@@]5(C)CCC(=NOC(C)=O)C(C)(COC(C)=O)[C@@H]5CC[C@]43C)[C@@H]12 (stereo partly drawn) [Compound 29] | 16 µM | 14 µM | 
14 | C=C(C)[C@@H]1CC[C@]2(C=NO)CC[C@]3(C)[C@H](CC[C@@H]4[C@@]5(C)CCC(=NO)C(C)(CO)[C@@H]5CC[C@]43C)[C@@H]12 (stereo partly drawn) [Compound 30] | 3 µM | 5 µM | IC50 (LN-229 (glioblastoma); [6]): 16 µM; IC50 (MCF-7 (breast carcinoma); [7]): < 2 µM; IC50 (A-375 (melanoma); [8]): 4 µM; IC50 (HT-29 (colon carcinoma); [9]): 13 µM
15 | C=C(C)[C@@H]1CC[C@]2(C#N)CC[C@]3(C)[C@H](CC[C@@H]4[C@@]5(C)CCC(=NOC(C)=O)C(C)(COC(C)=O)[C@@H]5CC[C@]43C)[C@@H]12 (stereo partly drawn) [Compound 35] | 24 µM | 31 µM | 
16 | C=C(C)[C@@H]1CC[C@]2(C#N)CC[C@]3(C)[C@H](CC[C@@H]4[C@@]5(C)CCC(N)C(C)(CO)[C@@H]5CC[C@]43C)[C@@H]12 (stereo partly drawn) [Compound 37] | 14 µM | 17 µM | 
17 | C=C(C)[C@@H]1CC[C@]2(COC(C)=O)CC[C@]3(C)[C@H](CC[C@@H]4[C@@]5(C)CCC(=O)C(C)(COC(C)=O)[C@@H]5CC[C@]43C)[C@@H]12 (stereo partly drawn) [Compound 38] | 18 µM | 31 µM | 
18 | C=C(CO)[C@@H]1CC[C@]2(C#N)CC[C@]3(C)[C@H](CC[C@@H]4[C@@]5(C)CCC(=NOC(C)=O)C(C)(COC(C)=O)[C@@H]5CC[C@]43C)[C@@H]12 (stereo partly drawn) [Compound 39d] | 14 µM | 33 µM | melting point: 141 to 143 °C
19 | C=C(CO)[C@@H]1CC[C@]2(COC(C)=O)CC[C@]3(C)[C@H](CC[C@@H]4[C@@]5(C)CCC(=O)C(C)(COC(C)=O)[C@@H]5CC[C@]43C)[C@@H]12 (stereo partly drawn) [Compound 40c] | 33 µM | 56 µM | 
20 | C=C(CO)[C@@H]1CC[C@]2(C(=O)O)CC[C@]3(C)[C@H](CC[C@@H]4[C@@]5(C)CC[C@H](O)C(C)(CO)[C@@H]5CC[C@]43C)[C@@H]12 (stereo partly drawn) [Compound 43a] | > 75 µM | > 75 µM | 
21 | C=C(CO)[C@@H]1CC[C@]2(COC(C)=O)CC[C@]3(C)[C@H](CC[C@@H]4[C@@]5(C)CC[C@H](O)C(C)(COC(C)=O)[C@@H]5CC[C@]43C)[C@@H]12 (stereo partly drawn) [Compound 43e] | 16 µM | 16 µM | 
22 | C=C(CO)[C@@H]1CC[C@]2(C(=O)O)CC[C@]3(C)[C@H](CC[C@@H]4[C@@]5(C)CCC(N)C(C)(CO)[C@@H]5CC[C@]43C)[C@@H]12 (stereo partly drawn) [Compound 44a] | > 75 µM | > 75 µM | 
23 | C=C(CO)[C@@H]1CC[C@]2(CO)CC[C@]3(C)[C@H](CC[C@@H]4[C@@]5(C)CCC(N)C(C)(CO)[C@@H]5CC[C@]43C)[C@@H]12 (stereo partly drawn) [Compound 44b] | 17 µM | 18 µM | 
24 | C=C(CO)[C@@H]1CC[C@]2(C#N)CC[C@]3(C)[C@H](CC[C@@H]4[C@@]5(C)CCC(N)C(C)(CO)[C@@H]5CC[C@]43C)[C@@H]12 (stereo partly drawn) [Compound 44d] | 32 µM | 73 µM | 
25 | C=C(C=O)[C@@H]1CC[C@]2(COC(C)=O)CC[C@]3(C)[C@H](CC[C@@H]4[C@@]5(C)CCC(=O)C(C)(COC(C)=O)[C@@H]5CC[C@]43C)[C@@H]12 (stereo partly drawn) [Compound 49a] | 5 µM | 9 µM | IC50 (LN-229 (glioblastoma); [6]): 15 µM; IC50 (MCF-7 (breast carcinoma); [7]): 4 µM; IC50 (A-375 (melanoma); [8]): 5 µM; IC50 (HT-29 (colon carcinoma); [9]): 5 µM
